Laboratory results reported in patent publication US12503438B2, “Compounds for the treatment of kinase-dependent disorders” (Exelixis, Inc., priority 2019, dated 2025).

How the values were obtained:
Type in all cases: cell-based
AXL = target: T1, AXL (Homo sapiens, UniProt P30530); assay: AXL autophosphorylation ELISA in A-172 cells; settings: cellular activity, Gas6-stimulated, phospho-AXL ELISA
T1 construct: endogenous in cells; host or cells: A-172 glioblastoma cells (ATCC #CRL-1620)
T1 sequence (P30530 26-894): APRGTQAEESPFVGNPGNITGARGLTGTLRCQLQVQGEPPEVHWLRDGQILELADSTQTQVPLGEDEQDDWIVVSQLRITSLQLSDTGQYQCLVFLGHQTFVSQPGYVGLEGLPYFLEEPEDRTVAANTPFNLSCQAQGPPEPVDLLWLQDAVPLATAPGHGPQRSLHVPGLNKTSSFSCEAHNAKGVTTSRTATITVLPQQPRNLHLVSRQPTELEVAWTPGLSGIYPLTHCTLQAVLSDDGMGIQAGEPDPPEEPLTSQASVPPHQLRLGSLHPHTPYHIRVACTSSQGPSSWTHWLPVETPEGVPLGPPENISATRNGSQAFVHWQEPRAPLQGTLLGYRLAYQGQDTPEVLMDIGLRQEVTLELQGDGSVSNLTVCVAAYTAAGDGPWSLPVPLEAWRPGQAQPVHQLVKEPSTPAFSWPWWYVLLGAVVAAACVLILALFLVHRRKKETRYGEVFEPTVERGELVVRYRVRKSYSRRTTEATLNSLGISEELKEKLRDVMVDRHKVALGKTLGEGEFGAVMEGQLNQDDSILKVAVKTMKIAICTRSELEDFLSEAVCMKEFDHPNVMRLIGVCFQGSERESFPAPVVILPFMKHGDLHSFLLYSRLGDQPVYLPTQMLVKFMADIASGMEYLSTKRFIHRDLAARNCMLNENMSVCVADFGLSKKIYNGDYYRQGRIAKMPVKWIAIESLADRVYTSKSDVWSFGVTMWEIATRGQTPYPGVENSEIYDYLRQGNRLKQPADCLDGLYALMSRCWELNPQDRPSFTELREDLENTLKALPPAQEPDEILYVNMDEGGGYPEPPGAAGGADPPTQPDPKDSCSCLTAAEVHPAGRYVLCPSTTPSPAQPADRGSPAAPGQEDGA
Experimental: A-172 glioblastoma cells (ATCC #CRL-1620) were seeded at 2.5×10^5 cells/well onto 24-well plates (Greiner #662165), in DMEM (Thermo Fisher #11995-040) containing 10% FBS (Thermo Fisher #26140-079), 1% MEM NEAA (Thermo Fisher #11140-050), 1% GlutaMax (Thermo Fisher #35050-061) and 1% Penicillin Streptomycin (Thermo Fisher #15140-122). A-172 cells were incubated at 37° C., 5% CO2 for 24 h and then starved for 24 h in serum-free medium. Test compounds were serially diluted to produce an 8-point dose curve in fresh serum-free medium to a final concentration of 0.3% DMSO (vehicle) and added to the cells and incubated for 1 h. Cells were then stimulated with 1 μg/mL recombinant human Gas6 (R&D Systems #885-GSB-500) for 15 min, washed with cold PBS and immediately lysed with 150 μL of cold 1× lysis buffer [20 mM Tris, 137 mM sodium chloride, 2 mM EDTA, 10% glycerol, 1% NP-40 alternative, 1 mM activated sodium orthovanadate, 1 mM PefaBloc SC (Sigma-Aldrich #11429868001), protease/phosphatase inhibitor tablet (Thermo Fisher #A32959)]. Lysates were collected and 100 μL/well added into the human phospho-AXL DuoSet IC ELISA (R&D Systems #DYC2228-2). Assay was performed according to manufacturer's instructions and sample phospho-AXL concentrations were extrapolated using human phospho-AXL control (R&D Systems #841645) as a standard. Positive control wells (100% activity) contained Gas6-stimulated, DMSO-treated cell lysates. Negative control wells (0% activity) contained Gas6-stimulated, reference inhibitor-treated cell lysates. IC50 values were calculated by nonlinear regression analysis using a 4-parameter logistic curve fit in ActivityBase XE (IDBS).

KDR = KDR (Homo sapiens, UniProt P35968); assay: KDR autophosphorylation ELISA in HUVEC cells; set-up: endogenous in cells; host or cells: HUVEC (Lonza #C2519A); settings: cellular activity, VEGF165-stimulated, phospho-KDR ELISA
Experimental: Human umbilical vein endothelial cells or HUVEC (Lonza #C2519A) were seeded at 2×10^4 cells/well onto 96-well plates (Corning #3904), in EGM-2 growth medium (Lonza #CC-3162) containing 1% Penicillin Streptomycin (Thermo Fisher #15140-122). HUVEC cells were incubated at 37° C., 5% CO2 for 24 h and then starved for 24 h in serum-free EBM-2 basal medium (Lonza #CC-3156) containing 1% Penicillin Streptomycin. Test compounds were serially diluted to produce an 8-point dose curve in fresh serum-free medium to a final concentration of 0.3% DMSO (vehicle) and added to the cells and incubated for 1 h. Cells were then stimulated with 100 ng/mL recombinant human VEGF165 (R&D Systems #293-VE-500) for 5 min, washed with cold PBS, and immediately lysed with 130 μL of cold 1× lysis buffer [20 mM Tris, 137 mM sodium chloride, 2 mM EDTA, 10% glycerol, 1% NP-40 alternative, 1 mM activated sodium orthovanadate, 1 mM PefaBloc SC (Sigma-Aldrich #11429868001), protease/phosphatase inhibitor tablet (Thermo Fisher #A32959)]. Lysates were collected and 100 μL/well added into the human phospho-KDR DuoSet IC ELISA (R&D Systems #DYC1766-2). Assay was performed according to manufacturer's instructions and sample phospho-KDR concentrations were extrapolated using human phospho-KDR control (R&D Systems #841421) as a standard. Positive control wells (100% activity) contained VEGF165-stimulated, DMSO-treated cell lysates. Negative control wells (0% activity) contained non-stimulated cell lysates. IC50 values were calculated by nonlinear regression analysis using a 4-parameter logistic curve fit in ActivityBase XE (IDBS).

Met = Met (Homo sapiens, UniProt P08581); assay: Met autophosphorylation ELISA in PC-3 cells; set-up: endogenous in cells; host or cells: PC-3 prostate cancer cells (ATCC #CRL-1435); settings: cellular activity, HGF-stimulated, phospho-Met ELISA, read-out: c-Met IC50
Experimental: PC-3 prostate cancer cells (ATCC #CRL-1435) were seeded at 4×10^4 cells/well onto 24-well plates (Greiner #662165), in DMEM (Thermo Fisher #11995-040) containing 10% FBS (Thermo Fisher #26140-079), 1% MEM NEAA (Thermo Fisher #11140-050), 1% GlutaMax (Thermo Fisher #35050-061), and 1% Penicillin Streptomycin (Thermo Fisher #15140-122). PC-3 cells were incubated at 37° C., 5% CO2 for 24 h and then starved for 3 h in serum-free medium. Test compounds were serially diluted to produce an 8-point dose curve in fresh serum-free medium to a final concentration of 0.3% DMSO (vehicle) and added to the cells and incubated for 1 h. Cells were then stimulated with 100 ng/mL recombinant human HGF (R&D Systems #294-HG-250) for 10 min, washed with cold PBS and immediately lysed with 130 μL of cold 1× lysis buffer [20 mM Tris, 137 mM sodium chloride, 2 mM EDTA, 10% glycerol, 1% NP-40 alternative, 1 mM activated sodium orthovanadate, 1 mM PefaBloc SC (Sigma-Aldrich #11429868001), protease/phosphatase inhibitor tablet (Thermo Fisher #A32959)]. Lysates were clarified by centrifugation and 100 μL/well added into the PathScan phospho-Met (panTyr) Sandwich ELISA (Cell Signaling Technology #7333). Assay was performed according to manufacturer's instructions. Positive control wells (100% activity) contained HGF-stimulated, DMSO-treated cell lysates. Negative control wells (0% activity) contained HGF-stimulated, reference inhibitor-treated cell lysates. IC50 values were calculated by nonlinear regression analysis using a 4-parameter logistic curve fit in ActivityBase XE (IDBS).

KDR, sequence (P35968 20-1356): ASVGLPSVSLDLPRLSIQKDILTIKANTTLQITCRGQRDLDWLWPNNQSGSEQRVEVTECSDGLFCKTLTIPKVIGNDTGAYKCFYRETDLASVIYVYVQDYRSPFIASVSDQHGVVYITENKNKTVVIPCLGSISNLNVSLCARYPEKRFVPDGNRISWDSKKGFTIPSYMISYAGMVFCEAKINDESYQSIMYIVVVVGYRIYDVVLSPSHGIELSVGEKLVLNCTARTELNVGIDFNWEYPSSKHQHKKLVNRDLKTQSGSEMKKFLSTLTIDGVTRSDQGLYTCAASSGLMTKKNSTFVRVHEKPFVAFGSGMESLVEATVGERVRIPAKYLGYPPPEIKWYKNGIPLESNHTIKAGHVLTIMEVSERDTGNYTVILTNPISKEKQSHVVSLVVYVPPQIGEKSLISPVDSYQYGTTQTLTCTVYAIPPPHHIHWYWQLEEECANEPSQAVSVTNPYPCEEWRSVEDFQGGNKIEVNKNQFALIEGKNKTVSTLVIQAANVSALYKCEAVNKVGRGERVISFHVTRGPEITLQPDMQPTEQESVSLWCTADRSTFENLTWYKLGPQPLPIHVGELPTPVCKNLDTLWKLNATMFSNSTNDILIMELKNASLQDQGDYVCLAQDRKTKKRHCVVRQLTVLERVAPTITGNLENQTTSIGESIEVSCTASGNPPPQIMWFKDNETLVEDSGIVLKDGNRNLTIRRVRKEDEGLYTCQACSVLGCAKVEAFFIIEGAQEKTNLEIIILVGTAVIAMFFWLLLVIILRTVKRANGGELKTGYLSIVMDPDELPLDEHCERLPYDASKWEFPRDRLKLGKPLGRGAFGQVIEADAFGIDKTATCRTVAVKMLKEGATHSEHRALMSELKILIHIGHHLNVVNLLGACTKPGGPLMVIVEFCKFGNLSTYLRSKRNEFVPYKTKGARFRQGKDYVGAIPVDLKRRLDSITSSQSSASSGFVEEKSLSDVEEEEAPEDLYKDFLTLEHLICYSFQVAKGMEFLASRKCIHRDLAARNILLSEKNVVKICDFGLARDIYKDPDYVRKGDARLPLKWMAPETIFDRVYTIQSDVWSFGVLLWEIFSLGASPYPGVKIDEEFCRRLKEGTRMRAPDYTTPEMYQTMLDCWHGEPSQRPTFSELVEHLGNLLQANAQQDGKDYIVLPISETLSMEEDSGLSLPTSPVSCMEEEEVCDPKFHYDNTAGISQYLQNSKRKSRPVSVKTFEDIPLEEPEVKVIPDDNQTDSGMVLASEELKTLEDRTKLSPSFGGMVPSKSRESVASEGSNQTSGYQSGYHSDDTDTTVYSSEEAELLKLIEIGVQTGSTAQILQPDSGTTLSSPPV
Met, sequence (P08581 25-1390): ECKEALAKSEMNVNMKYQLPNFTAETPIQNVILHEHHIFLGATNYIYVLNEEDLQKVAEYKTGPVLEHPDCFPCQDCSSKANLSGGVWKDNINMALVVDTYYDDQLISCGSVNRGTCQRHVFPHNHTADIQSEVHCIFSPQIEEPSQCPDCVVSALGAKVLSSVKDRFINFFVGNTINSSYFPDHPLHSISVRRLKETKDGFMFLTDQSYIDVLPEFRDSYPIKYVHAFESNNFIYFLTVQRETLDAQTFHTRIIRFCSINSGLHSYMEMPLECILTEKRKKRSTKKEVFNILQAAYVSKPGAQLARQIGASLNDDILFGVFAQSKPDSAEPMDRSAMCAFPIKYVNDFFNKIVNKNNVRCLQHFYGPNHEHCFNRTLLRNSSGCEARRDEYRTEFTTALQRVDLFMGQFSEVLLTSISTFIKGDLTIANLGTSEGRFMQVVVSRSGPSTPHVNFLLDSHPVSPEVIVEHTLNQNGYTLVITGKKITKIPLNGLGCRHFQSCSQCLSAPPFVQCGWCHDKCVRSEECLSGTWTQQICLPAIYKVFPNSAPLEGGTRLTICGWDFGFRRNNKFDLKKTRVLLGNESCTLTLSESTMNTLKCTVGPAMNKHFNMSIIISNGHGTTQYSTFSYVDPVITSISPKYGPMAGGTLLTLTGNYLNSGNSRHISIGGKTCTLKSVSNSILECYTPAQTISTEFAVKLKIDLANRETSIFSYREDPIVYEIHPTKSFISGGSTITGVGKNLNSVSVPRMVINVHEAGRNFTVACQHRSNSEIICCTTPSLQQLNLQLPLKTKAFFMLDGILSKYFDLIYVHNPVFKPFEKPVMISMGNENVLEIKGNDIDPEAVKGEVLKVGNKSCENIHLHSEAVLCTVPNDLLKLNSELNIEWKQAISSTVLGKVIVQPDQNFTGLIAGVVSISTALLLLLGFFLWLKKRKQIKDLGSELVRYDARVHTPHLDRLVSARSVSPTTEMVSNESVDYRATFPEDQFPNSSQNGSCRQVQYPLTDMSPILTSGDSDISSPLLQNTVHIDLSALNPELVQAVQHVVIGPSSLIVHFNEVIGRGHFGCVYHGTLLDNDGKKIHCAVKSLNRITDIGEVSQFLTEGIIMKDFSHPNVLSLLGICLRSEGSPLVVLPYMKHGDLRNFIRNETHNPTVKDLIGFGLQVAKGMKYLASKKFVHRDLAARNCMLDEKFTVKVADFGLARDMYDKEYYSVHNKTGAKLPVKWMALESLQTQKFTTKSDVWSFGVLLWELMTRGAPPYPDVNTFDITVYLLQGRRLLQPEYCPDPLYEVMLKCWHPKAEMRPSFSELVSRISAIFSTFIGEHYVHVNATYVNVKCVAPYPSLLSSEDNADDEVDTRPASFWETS

O=C(Nc1ccc(F)cc1)C1(C(=O)Nc2ccc(Oc3ccnc4cc(C5CCOC5)ccc34)cc2)CC1 (single isomer, unassigned) [Compound 88, 1-N′-(4-Fluorophenyl)-1-N-[4-[7-[oxolan-3-yl]quinolin-4-yl]oxyphenyl]cyclopropane-1,1-dicarboxamide]
IC50 (AXL): > 300 nM | IC50 (KDR): > 300 nM | IC50 (Met): 10 to 100 nM

O=C(Nc1ccc(F)cc1)C1(C(=O)Nc2ccc(Oc3ccnc4cc(C5CCOC5)ccc34)cc2)CC1 (single isomer, unassigned) [Compound 89, 1-N′-(4-Fluorophenyl)-1-N-[4-[7-[oxolan-3-yl]quinolin-4-yl]oxyphenyl]cyclopropane-1,1-dicarboxamide]
IC50 (AXL): > 300 nM | IC50 (KDR): > 300 nM | IC50 (Met): 10 to 100 nM

Cc1cc(-c2ccc3c(Oc4ccc(NC(=O)C5(C(=O)Nc6ccc(F)cc6)CC5)cc4)ccnc3c2)cc(C)n1 [Compound 32, 1-N-[4-[7-(2,6-Dimethylpyridin-4-yl)quinolin-4-yl]oxyphenyl]-1-N′-(4-fluorophenyl)cyclopropane-1,1-dicarboxamide]
IC50 (Met): 10 to 100 nM

O=C(Nc1ccc(F)cc1)C1(C(=O)Nc2ccc(Oc3ccnc4cc(-c5ccc(C(F)(F)F)nc5)ccc34)cc2)CC1 [Compound 35, 1-N′-(4-Fluorophenyl)-1-N-[4-[7-[6-(trifluoromethyl)pyridin-3-yl]quinolin-4-yl]oxyphenyl]cyclopropane-1,1-dicarboxamide]
IC50 (Met): 100 to 300 nM

O=C(Nc1ccc(F)cc1)C1(C(=O)Nc2ccc(Oc3ccnc4cc(-c5ccnc(C(F)(F)F)c5)ccc34)cc2)CC1 [Compound 36, 1-N′-(4-Fluorophenyl)-1-N-[4-[7-[2-(trifluoromethyl)pyridin-4-yl]quinolin-4-yl]oxyphenyl]cyclopropane-1,1-dicarboxamide]
IC50 (Met): 100 to 300 nM

Cc1ccc(-c2ccc3c(Oc4ccc(NC(=O)C5(C(=O)Nc6ccc(F)cc6)CC5)cc4)ccnc3c2)cn1 [Compound 37, 1-N′-(4-Fluorophenyl)-1-N-[4-[7-(6-methylpyridin-3-yl)quinolin-4-yl]oxyphenyl]cyclopropane-1,1-dicarboxamide]
IC50 (AXL): 100 to 300 nM | IC50 (KDR): 10 to 100 nM | IC50 (Met): 10 to 100 nM

O=C(Nc1ccc(F)cc1)C1(C(=O)Nc2ccc(Oc3ccnc4cc(-c5ccc(C6CC6)nc5)ccc34)cc2)CC1 [Compound 43, 1-N-[4-[7-(6-Cyclopropylpyridin-3-yl)quinolin-4-yl]oxyphenyl]-1-N′-(4-fluorophenyl)cyclopropane-1,1-dicarboxamide]
IC50 (AXL): 100 to 300 nM | IC50 (KDR): 10 to 100 nM | IC50 (Met): 100 to 300 nM

O=C(Nc1ccc(F)cc1)C1(C(=O)Nc2ccc(Oc3ccnc4cc(-c5cnc6[nH]ccc6c5)ccc34)cc2)CC1 [Compound 44, 1-N′-(4-Fluorophenyl)-1-N-[4-[7-(1H-pyrrolo[2,3-b]pyridin-5-yl)quinolin-4-yl]oxyphenyl]cyclopropane-1,1-dicarboxamide]
IC50 (Met): 100 to 300 nM

O=C(Nc1ccc(F)cc1)C1(C(=O)Nc2ccc(Oc3ccnc4cc(-c5cncc(C(F)(F)F)c5)ccc34)cc2)CC1 [Compound 48, 1-N′-(4-Fluorophenyl)-1-N-[4-[7-[5-(trifluoromethyl)pyridin-3-yl]quinolin-4-yl]oxyphenyl]cyclopropane-1,1-dicarboxamide]
IC50 (Met): 100 to 300 nM

O=C(Nc1ccc(F)cc1)C1(C(=O)Nc2ccc(Oc3ccnc4cc(-c5ccc(N6CCCC6)nc5)ccc34)cc2)CC1 [Compound 49, 1-N′-(4-Fluorophenyl)-1-N-[4-[7-(6-pyrrolidin-1-ylpyridin-3-yl)quinolin-4-yl]oxyphenyl]cyclopropane-1,1-dicarboxamide]
IC50 (AXL): 100 to 300 nM | IC50 (Met): 100 to 300 nM

O=C(Nc1ccc(F)cc1)C1(C(=O)Nc2ccc(Oc3ccnc4cc(-c5cc(C(F)(F)F)[nH]n5)ccc34)cc2)CC1 [Compound 100, 1-N′-(4-Fluorophenyl)-1-N-[4-[7-[5-(trifluoromethyl)-1H-pyrazol-3-yl]quinolin-4-yl]oxyphenyl]cyclopropane-1,1-dicarboxamide]
IC50 (Met): 100 to 300 nM

Cc1cc2c(Oc3ccc(NC(=O)C4(C(=O)Nc5ccc(F)cc5)CC4)cc3)ccnc2cc1-c1cn[nH]c1 [Compound 106, 1-N′-(4-Fluorophenyl)-1-N-[4-[6-methyl-7-(1H-pyrazol-4-yl)quinolin-4-yl]oxyphenyl]cyclopropane-1,1-dicarboxamide]
IC50 (AXL): 10 to 100 nM | IC50 (KDR): ≤ 10 nM | IC50 (Met): 10 to 100 nM

CN(C(=O)C1(C(=O)Nc2ccc(Oc3ccnc4cc(-c5cnn(C(F)F)c5)ccc34)cc2)CC1)c1ccc(F)cc1 [Compound 126, 1-N-[4-[7-[1-(Difluoromethyl)pyrazol-4-yl]quinolin-4-yl]oxyphenyl]-1-N′-(4-fluorophenyl)-1-N′-methylcyclopropane-1,1-dicarboxamide]
IC50 (Met): > 300 nM
